Data as given in patent US20110021619A1, “EXTERNAL PREPARATION FOR SKIN CONTAINING FLAVANONE DERIVATIVE” (priority 2006, published 2011).

Legend:
[1] = tested on: epidermal keratinocytes and fibroblasts; test: Influence on fibroblasts through epidermal keratinocytes, amount of procollagen produced (PIP EIA); format: cell-based, human
Method: The method is based on one described in Eming SA et al., Hum. Gene. Ther., 9 (4), 529-39 (1998).
DAY 1: The cells are seeded on a 24-well plate at a cell density of 3×10^4 cells/well. […] DAY 7: The supernatant of the culture is collected.
DAY 3: The cells are seeded on a 24-well plate at a cell density of 2.5×10^4 cells/well. DAY 7: The plate is washed with PBS and the culture supernatant (900 μl) of the epidermal keratinocytes is then added, followed by culturing for 48 hours. DAY 9: The plate is washed with PBS and serum-free DMEM and the medium is then replaced with 500 μl of serum-free DMEM, followed by culturing for 2 hours. The supernatant of the culture is collected and the amount of procollagen in the centrifuged supernatant (15000 rpm, 5 sec.) was then measured depending on the method described below. […]
4) A standard curve was formed by plotting absorbance values at a wavelength of […] while the absorbance of the medium was set to zero as a reference. Then, the PIP concentration was read out from the corresponding absorbance of the test substance.

Normal human fibroblasts [2] = test: Wound-healing model (punched three-dimensional collagen gel), behavior of fibroblasts; format: cell-based; conditions: 10^−6 ml/ml-DMEM farrerol, after 24 hours, vs farrerol-free group
Description: 1) The culture of fibroblasts obtained by Protocol 4 of Example 1 and the collagen medium solution were mixed together at a ratio of 1:9 (volume) and then suspension-cultured in a 10%-FBS medium for 1 week.
2) When the size of a collagen gel was reduced from one at the time of being prepared by the addition of the collagen medium solution to a size of about ⅕ to 1/10, the center portion of the gel was punched out by a disposable biopsy punch with a diameter of 3 mm.
3) A 6-well plate was prepared and 15 μl of the collagen solution was then dropped on the center of the well. Subsequently, the punched three-dimensional collagen gel was mounted thereon and incubated for 10 minutes (37° C., 5% CO2).
4) When the dropped collagen was solidified and the three-dimensional collagen gel was attached to the bottom of the well, 10% FBS-DMEM, 0.1% heparin/10% FBS-DMEM, and 1.0% heparin/10% FBS-DMEM were added in a volume of 3 ml/well.

Normal human fibroblasts [3] = test: Toxicity of farrerol on fibroblasts, MTT assay (WST-8); format: cell-based; conditions: 24, 48 and 72 hours after addition, any of the concentrations considered
Method: 1. Fibroblasts grown to 80% confluency were dispersed with 0.05% Trypsin/EDTA. The dispersant was seeded on 96 wells/plate at a concentration of 3×10^3 cells/well. 2. […] 3. […] 4. Absorbance was measured at a measurement wavelength of 450 nm and a reference wavelength of 650 nm.

NHDF = test: Building of collagen fiber bundle in collagen gel with heparin, SEM observation; format: cell-based, human; conditions: 1% heparin at final, 5 days incubation, FIG. 3
Method: A collagen solution was prepared by mixture of 0.5% type-I collagen: 5×DMEM: 200 mM HEPES: 2.2% NaHCO3: 0.1 N NaOH: FBS: water at a ratio of 4:4:2:2:1:2:3 (performed while cooling).
A lower-layer collagen solution was prepared by mixing collagen solution with water at a ratio of 9 to 1.
The lower-layer collagen solution was dispensed into the respective wells of a 48-well plate in a volume of 100 μl/well.
The collagen solution was mixed with the cell suspension at a ratio of 9 to 1 (volume) and then dispensed into the respective wells in a volume of 300 μl/well.
The addition of 1.8% Heparin/10% FBS-DMEM was performed in a volume of 500 μl/well (1% Heparin/well at final).
Incubation was carried out in the CO2 incubator (5 days).
A sample for SEM observation was obtained.

[4] = tested on: Normal human epidermal keratinocytes
Method: 1) Normal human epidermal keratinocytes grown to 80% confluency were dispersed with 0.05% Trypsin/EDTA. The dispersant was seeded on 96 wells/plate at a concentration of 3×10^3 cells/well and 6×10^3 cells/well.
4) Absorbance (OD value) was measured at a measurement wavelength of 450 nm and a reference wavelength of 650 nm.

[5] = tested on: Normal human epidermal keratinocytes; test: Cell proliferation effect of farrerol on keratinocytes (direct evaluation, cell count); format: cell-based; conditions: FIG. 7
Method: 3) After 24 hours, 48 hours, and 72 hours from the sample addition, the cells were dispersed with 0.05% Trypsin/EDTA and the number thereof was then counted by a blood cell counter. By the way, in Experiment 1, the evaluation for WST-8 was used as an indicator of the number of cells. Since such a method is provided for indirect evaluation of the number of cells by acting on […] in mitochondria, the present study directly count the number of cells.

Normal human fibroblasts [6] = test: Screening with wound model (punched collagen gel), Example 11; format: cell-based
Method: The fractions containing the single ingredients obtained as described above are provided as test substances and the effect of each test substance to construct collagen is then evaluated to screen the substance with a wound-healing effect. The specific procedures will be described later.
Using a “wound model” provided with a defect area formed by punching a collagen gel containing animal fibroblasts, the degree of filling or reduction of the defect area in the presence of a test substance will be observed. The procedures are as follows.
1) Normal human fibroblasts grown to 80% confluency in preculture were dispersed with 0.05% Trypsin/EDTA. The fibroblasts were then seeded on a plate at a cell density of 3×10^5 cells/25 cm^2 (1×10^4 cells/cm^2).
3) A collagen gel was prepared by adding a collagen medium solution to the obtained culture in a manner similar to Example 3. The fibroblasts in the collagen gel were cultured using the medium used in (2). The concentration of the test substance in the medium corresponded to the concentration of the medium of (2).
4) After culturing for 1 week, the size of a collagen gel was reduced from one at the time of being prepared by the addition of the collagen medium solution to a size of about ⅕ to 1/10. Subsequently, the center portion of the collagen gel was punched out in a donut form by a disposable biopsy punch with a diameter of 3 mm. As a result, a “wound model” was prepared.
5) A 6-well plate was prepared and 5 μl of the collagen solution was then dropped on the center portion of the well. Subsequently, the collagen gel of the wound model was mounted thereon and incubated at 37° C. for 15 minutes, allowing the collagen gel to be attached on the bottom of the well.
6) Subsequently, 3 ml of the same medium as that of (2) was added to each of the wells and the fibroblasts in the above-mentioned collagen gel was then cultured for 7 days. During the culture, the process of closing up the wound area of the collagen gel was visually observed.

Normal human fibroblasts [7] = test: Model of defective dermal tissue with wound (punched collagen gel), Example 6; format: cell-based; conditions: FIG. 4
Method: The procedures will be described below. The results are represented in FIG. 4.
1) Normal human fibroblasts grown to 80% confluency were dispersed with 0.05% Trypsin/EDTA. The fibroblasts were seeded at a cell density of 3×10^5 cells/25 cm^2.
3) A collagen gel was prepared by adding a collagen medium solution to the culture obtained by culturing under each of the conditions in a manner similar to Example 2. The prepared collagen gel was then suspension-cultured for 1 week in the same medium as that of the culture condition of (2).
4) When the size of a collagen gel was reduced from one at the time of being prepared by the addition of the collagen medium solution to a size of about ⅕ to 1/10, the center portion of the gel was punched out in a donut form by a disposable biopsy punch with a diameter of 3 mm. As a result, a “wound model” was prepared.
5) A 6-well plate was prepared and 5 μl of collagen was then dropped on the center portion of the well. Subsequently, the collagen gel of the wound model was mounted thereon and incubated at 37° C. for 15 minutes.
6) When the dropped collagen was solidified and the gel was attached to the bottom of the well, 3 ml of the medium with the same condition as that of (3) was added, followed by culturing as a “model of defective dermal tissue with wound”. Subsequently, the process of closing up the wound area of the collagen gel was visually observed.

Cc1c(O)c(C)c2c(c1O)C(=O)CC(c1ccc(O)cc1)O2 (centres unmarked) [farrerol]
amount of procollagen produced ([1]; another system: farrerol added at the time of culturing fibroblasts, then keratinocyte culture supernatant added): did not show a large change in amount of procollagen produced | amount of procollagen produced ([1]; fibroblasts cultured 48 hours with supernatant of keratinocytes treated with farrerol 10^−6, 10^−7, 10^−8 M, FIG. 8): increased significantly depending on the concentration of farrerol | movement of fibroblasts from the wound area (Normal human fibroblasts [2]; 0.1% heparin/10% FBS-DMEM and 1.0% heparin/10% FBS-DMEM): no difference in cell movement | movement of fibroblasts from the wound area (Normal human fibroblasts [2]; unsupplemented 10% FBS-DMEM, FIG. 2): longer movement distance of fibroblasts and a more active cellular movement | cytotoxicity (Normal human fibroblasts [3]): Significant cytotoxicity could not be confirmed | building of a collagen fiber bundle (NHDF): prevents an inhibitory effect of heparin on the building of a collagen fiber bundle | OD value (450 nm) ([4]; dependence on concentration of farrerol, FIG. 5): increased depending on the concentration of farrerol | OD value, reproducibility ([4]; doubled number of seeded cells, 6×10^3 cells/well): almost the similar result could be obtained | cell shape [5]: no change in cell shape | degree of filling or reduction of the defect area (Normal human fibroblasts [6]; compared with the rest of the seven single-ingredient fractions of Hypericum erectum extract): highest degree of filling or reduction of the defect area | concentration exerting a wound-healing promoting effect (Normal human fibroblasts [6]; effective concentration read from defect area reduction): at least 10^−6 M | reduction of the punch hole (defect area) (Normal human fibroblasts [6]; final concentration of farrerol 10^−5 M, FIG. 9): distinctly promoted | reduction of the punch hole (defect area) (Normal human fibroblasts [6]; final concentration of farrerol 10^−6 M, FIG. 9): distinctly promoted | promotion of reduction of the punch hole (defect area) (Normal human fibroblasts [6]; final concentration of farrerol 10^−7 M, FIG. 9): obscure | reduction of punched hole size (Normal human fibroblasts [7]; final concentration of farrerol 10^−5 M): promoted clearly | reduction of punched hole size (Normal human fibroblasts [7]; final concentration of farrerol 10^−6 M): promoted clearly | promotion of reduction of punched hole size (Normal human fibroblasts [7]; final concentration of farrerol 10^−7 M): unclear
